From patent US10966995B2, “Use of secoisolariciresinol diglucosides (SDGS) and related compounds for protection against radiation and chemical damage” (THE TRUSTEES OF THE UNIVERSITY OF PENNSYLVANIA, priority 2014, dated 2021)

How the values were obtained:
[1] = tested on: mouse lung epithelial cells; assay: Apoptosis detection by western blotting (Bax, Bcl-2, cleaved caspase-3, cleaved PARP); format: cell-based; details: SDG pre-treated vs irradiated cells
Procedure: Apoptosis was determined in mouse lung epithelial cells by levels of Bax (an apoptosis promoter), Bcl-2 (an apoptosis inhibitor), cleaved caspase-3, and cleaved poly (adenosine diphosphate-ribose) polymerase (PARP) seen using immunoblotting. Briefly, cells were lysed in PBS containing protease inhibitors. Immunoblot analysis of cell lysates was then performed using 10 well SDS 12% NuPAGE gel (Invitrogen, Carlsbad Calif.). Electrophoresis was performed at 200V for 1 hour. Transfer to PolyScreen PV transfer membrane (PerkinElmer Life Sciences, Boston, Mass.) was performed for 1 hour at 25 volts. Membrane was blocked overnight in 5% non-fat dry milk in phosphate buffered saline. The non-fat dry milk was then discarded and the membrane was incubated with primary antibody. Protein levels of Bax, Bcl-2, cleaved caspase-3, and cleaved PARP were detected using manufacturer recommended dilutions (Cell Signaling Technology, Danvers, Mass.) using rabbit anti-mouse monoclonal antibody against BAX and Bcl-2, and rabbit anti-mouse cleaved caspase-3 (Asp175), monoclonal antibody and a rabbit polyclonal anti-cleaved PARP (214/215) cleavage site specific antibody. The membrane was washed five times and then incubated in secondary antibody conjugated to horseradish peroxidase for 45 minutes at room temperature. Membranes were developed using Western Lighting Chemiluminescence Reagent Plus (PerkinElmer Life Sciences, Boston, Mass.) and quantified by densitometry scanning of specific bands (20 kDa for Bax, 26 kDa for Bcl-2, 17/19 kDa for cleaved caspase-3, and 89 kDa for cleaved PARP) that were adjusted for loading using β-actin expression level detected by specific secondary antibody (Sigma, St. Louis, Mo.).

human epithelial cells = assay: BaP-induced oxidative DNA damage (gamma-H2AX levels); format: cell-based; details: SDG 5, 10, 25, 50 and 100 μM
From the text: Similarly, SDG prevents genotoxic stress in human epithelial cells exposed to BaP. Exposure of cells to a potent carcinogen such as BaP, induces genotoxic stress as indicated by increased levels of p53 protein (FIG. 25). […] SDG also prevents oxidative DNA damages in human epithelial cells exposed to BaP. Exposure of cells to a potent carcinogen such as BaP, induces oxidative DNA damage as indicated by increased levels of gamma-H2AX, a marker for double-stranded DNA breaks (FIG. 26). […] Furthermore, SDG prevents DNA adduct formation in human epithelial cells exposed to BaP. Exposure of cells to a potent carcinogen such as BaP, induces the formation of DNA adducts (FIG. 27). DNA adducts are pieces of DNA covalently linked to a carcinogen and is directly linked to the development of malignancy. The DNA adduct levels is decreased by the presence of SDG or its metabolites ED and EL given alone or in combination.

[2] = SDG pharmacokinetic study after oral gavage (plasma and lung); format: in vivo, mouse
Procedure: After selecting the 100 mg/kg dose as a dose that induces significant AOE expression while allowing for SDG to be detected in circulation, a pharmacokinetic study was performed to determine bioavailability and biological effects in target tissues (i.e., lung). Blood samples as well as tissues (lung, brain, liver, kidneys, spleen) were collected at 15 min, 30 min, and 1, 2, 4, 6, 8, 12 hours. SDG levels were determined as above in plasma and lung (FIGS. 41A-C). A single dose of 100 mg SDG/Kg was well absorbed and intact SDG was detectable in the circulation up to 6 hours post administration (FIG. 41A) and in flushed, blood-free lung tissues for 4 hours (FIG. 41B). […] The observed gene expression increase correlated with an increase in protein levels determined by western blotting (not shown). […] The use of SDG in human therapy is thus greatly facilitated and the toxicity risk is unlikely. Therefore a dose of 50-100 mg/Kg (1 or 2 mg SDG per day) is sufficient to induce the anticipated protective effects in target tissues and can be used for further study.

[3] = typical range, earlier work; read-out: EC50 values for free radical scavenging and antioxidant effects; cited from earlier work
[4] = tested on: Nrf2-regulated antioxidant enzymes (AOE); assay: SDG dosing study: antioxidant enzyme expression in lung after oral gavage; format: in vivo, mouse
Procedure: SDG doses of 5, 25, 50 and 100 mg/Kg body weight were administered orally to mice (n=5 per dose) and 4 hours later tissues were collected for analysis. Plasma concentrations of SDG and its bioactive metabolites ED, EL and SECO were analyzed by liquid chromatography and mass spectrometry and are expressed in ng/mL (FIG. 39) while gene expression levels of Nrf2-regulated antioxidant enzymes (AOE), an intracellular target of SDG and its metabolites, were determined in lung tissues from the same animals using qRT-PCR (FIG. 40). Gene expression levels of HO1, NQO1 and GST, increased 2-3 fold with as little as 5 mg SDG/Kg and reached an average of 6-fold increase over baseline with 100 mg/Kg SDG.

[5] = tested on: murine primary lung epithelial cells; assay: Morphological detection of apoptotic cells, epithelial cells; format: cell-based, mouse; details: SDG 50 μM pre-treatment; irradiated; 24 h; IR alone 13.9%
Procedure: Fibroblasts and endothelial cells were isolated from C57/bl6 mouse. For fibroblast isolation, mouse lungs were harvested, minced, and incubated with dispase (2 mg/ml) for 45 minutes. Pieces were plated out and fibroblasts were cultured as described previously and used between passages 3 and 10. Pulmonary microvascular endothelial cells (PMVEC) were isolated from murine lungs as described previously. Briefly, freshly harvested mouse lungs were treated with collagenase followed by isolation of cells by adherence to magnetic beads coated with mAb to platelet endothelial cell adhesion molecule (PECAM). […]
Apoptotic cells are morphologically characterized by condensation of nucleus and cytoplasm, membrane blebbing, cell shrinkage, and breakdown of nuclear DNA, first in large segments and subsequently in nucleosomal fragments and finally formation of well-enclosed apoptotic bodies. Percentage of cells undergoing apoptosis was determined microscopically from the slides used for micronuclei detection (cytogenetic damage). At least, 500 cells were counted for each experiment (experiment done twice) and percent apoptotic cells were determined as follows: % Cell Death=Na/Nt×100, where Na is the number of cells with apoptotic bodies and Nt is the total number of cells analyzed. Gene Expression Analysis by Quantitative Real Time PCR (qPCR)

[6] = 100 mg SDG/Kg oral, 30 minutes post-administration

COc1cc(C[C@@H](CO[C@@H]2O[C@H](CO)[C@@H](O)[C@H](O)[C@H]2O)[C@H](CO[C@@H]2O[C@H](CO)[C@@H](O)[C@H](O)[C@H]2O)Cc2ccc(O)c(OC)c2)ccc1O [SDG, secoisolariciresinol diglucoside]
Bax protein levels [1]: trended towards decreased levels
Bcl-2 protein levels [1]: trended towards decreased levels
Cleaved PARP levels ([1]; 6, 24, 48 hours post-IR): trended towards decreased levels
Cleaved caspase-3 levels ([1]; 6, 24, 48 hours post-IR): trended towards decreased levels
gamma-H2AX levels (human epithelial cells): mitigated dose-dependently
Time SDG detectable in flushed, blood-free lung tissues ([2]; 100 mg SDG/Kg oral): 4 h
Time intact SDG detectable in the circulation post administration ([2]; 100 mg SDG/Kg oral): up to 6 hours
Lung tissue concentration of SDG [2, 6]: 12.6 µM
Plasma concentration of SDG [2, 6]: 800 nM
Absorption ([2]; single dose of 100 mg SDG/Kg, oral gavage): well absorbed
EC50 [3]: 130 to 200 µM
Gene expression levels of HO1, NQO1 and GST in lung, increase ([4]; 5 mg SDG/Kg oral, 4 hours): 2-3 fold
Gene expression levels of HO1, NQO1 and GST in lung, average increase over baseline ([4]; 100 mg/Kg SDG oral, 4 hours): 6 fold
Protein levels in lung tissues ([4]; oral SDG dosing study): lower but yet significant increase
Apoptotic cells [5]: 9.9%±1.08
